# Measurements: US9376425B2, “Heterocyclic compounds as MDM2 inhibitors for the treatment of cancer” (AMGEN INC., priority 2011, dated 2016)
# Target: T1, human MDM2 (GST-hMDM2 1-188), interaction with biotinylated-p53 (1-83) (Homo sapiens, UniProt Q00987)
# T1 construct: Amino acid residues 1-188 of human MDM2 were expressed; made in house; host or cells: Escherichia coli
# Assay: improved HTRF assay (HTRF2 assay), inhibition of HDM2-p53 interaction
# Assay type: binding
# Settings: 0.2 nM GST-hMDM2, 0.5 nM biotinylated-p53, 100 mM KF
# Outline: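 GST-hMDM2 preincubated 20 min at RT with serially diluted compound, then biotinylated p53 (1-83, E. coli) added for 60 min. Detection with SA-XLent, anti-GST cryptate and KF, equilibrated >4 h; final DMSO 2%. TR-FRET read; % inhibition calculated relative to nutlin-3.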
# T1 sequence (Q00987 1-188): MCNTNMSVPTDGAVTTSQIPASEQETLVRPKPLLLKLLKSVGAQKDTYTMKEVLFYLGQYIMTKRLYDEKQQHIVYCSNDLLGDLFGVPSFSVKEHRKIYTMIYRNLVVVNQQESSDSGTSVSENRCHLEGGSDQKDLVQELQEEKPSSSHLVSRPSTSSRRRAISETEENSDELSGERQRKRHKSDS
row,SMILES,IC50
1,"CC[C@@H](CS(=O)(=O)C(C)(C)C)N1C(=O)[C@@H](CC(=O)O)O[C@H](c2cc(Cl)cc(Cl)c2)[C@H]1c1ccc(Cl)cc1 (single isomer, unassigned) [Example 148, 2-((2R,5R,6R)-5-(4-chlorophenyl)-6-(3,5-dichlorophenyl)-4-((S)-1-(tert-butylsulfonyl)butan-2-yl)-3-oxomorpholin-2-yl)acetic acid or 2-((2S,5R,6R)-5-(4-chlorophenyl)-6-(3,5-dichlorophenyl)-4-((S)-1-(tert-butylsulfonyl)butan-2-yl)-3-oxomorpholin-2-yl)acetic acid]",7 nM
2,"CC[C@@H](CS(=O)(=O)C(C)(C)C)N1C(=O)[C@@H](CC(=O)NC#N)O[C@H](c2cccc(Cl)c2)[C@H]1c1ccc(Cl)cc1 [Example 345, 2-((2R,5R,6R)-4-((S)-1-(tert-Butylsulfonyl)butan-2-yl)-6-(3-chlorophenyl)-5-(4-chlorophenyl)-3-oxomorpholin-2-yl)-N-cyanoacetamide]",< 1 nM
3,"CC[C@@H](CS(=O)(=O)C(C)(C)C)N1C(=O)[C@@H](CC(=O)O)O[C@H](c2cccc(Cl)c2)[C@@]1(C)c1ccc(Cl)cc1 (single isomer, unassigned) [Example 162, 2-((2R,5R,6R)-4-((S)-1-(tert-butylsulfonyl)butan-2-yl)-6-(3-chlorophenyl)-5-(4-chlorophenyl)-5-methyl-3-oxomorpholin-2-yl)acetic acid or 2-((2S,5R,6R)-4-((S)-1-(tert-butylsulfonyl)butan-2-yl)-6-(3-chlorophenyl)-5-(4-chlorophenyl)-5-methyl-3-oxomorpholin-2-yl)acetic acid]",6250 nM
4,"CC(C)(C)S(=O)(=O)C[C@H](C1CC1)N1C(=O)[C@@H](CC(=O)NCC(F)(F)F)O[C@H](c2cccc(Cl)c2)[C@H]1c1ccc(Cl)cc1 (single isomer, unassigned) [Example 347, 2-((2R,5R,6R)-4-((S)-2-(tert-Butylsulfonyl)-1-cyclopropylethyl)-6-(3-chlorophenyl)-5-(4-chlorophenyl)-3-oxomorpholin-2-yl)-N-(2,2,2-trifluoroethyl)acetamide or 2-((2S,5R,6R)-4-((S)-2-(tert-butylsulfonyl)-1-cyclopropylethyl)-6-(3-chlorophenyl)-5-(4-chlorophenyl)-3-oxomorpholin-2-yl)-N-(2,2,2-trifluoroethyl)acetamide]",4 nM
5,"CC(C)[C@@H](CS(=O)(=O)C(C)(C)C)N1C(=O)[C@@H](CC(=O)O)O[C@H](c2cccc(Cl)c2)[C@H]1c1ccc(Cl)c(F)c1 (single isomer, unassigned) [Example 310]",1 nM
6,"CC[C@@H](CS(=O)(=O)C(C)(C)CC)N1C(=O)[C@@H](CC(=O)O)O[C@H](c2cccc(Cl)c2)[C@H]1c1ccc(Cl)cc1 (single isomer, unassigned) [Example 122, 2-((2R,5R,6R)-6-(3-Chlorophenyl)-5-(4-chlorophenyl)-3-oxo-4-((S)-1-(tert-pentylsulfonyl)butan-2-yl)morpholin-2-yl)acetic acid or 2-((2S,5R,6R)-6-(3-Chlorophenyl)-5-(4-chlorophenyl)-3-oxo-4-((S)-1-(tert-pentylsulfonyl)butan-2-yl)morpholin-2-yl)acetic acid]",< 1 nM
7,"CC[C@@H](CS(=O)(=O)C(C)(C)C)N1C(=O)[C@@H](CC(=O)O)O[C@H](c2cc(F)cc(Cl)c2)[C@H]1c1ccc(Cl)c(F)c1 (single isomer, unassigned) [Example 426, 2-((2R,5R,6R)-4-((S)-1-(tert-Butylsulfonyl)butan-2-yl)-5-(4-chloro-3-fluorophenyl)-6-(3-chloro-5-fluorophenyl)-3-oxomorpholin-2-yl)acetic acid or 2-((2S,5R,6R)-4-((S)-1-(tert-butylsulfonyl)butan-2-yl)-5-(4-chloro-3-fluorophenyl)-6-(3-chloro-5-fluorophenyl)-3-oxomorpholin-2-yl)acetic acid]",1 nM
8,"CC[C@@H]([C@H](C)S(=O)(=O)C(C)C)N1C(=O)[C@@H](CC(=O)O)O[C@H](c2cccc(Cl)c2)[C@H]1c1ccc(Cl)cc1 (single isomer, unassigned) [Example 414]",1 nM
9,"CC(C)(C)S(=O)(=O)C[C@H](C1CC1)N1C(=O)[C@@H](Cc2ncn[nH]2)O[C@H](c2cccc(Cl)c2)[C@H]1c1ccc(Cl)cc1 (single isomer, unassigned) [Example 389, (2R,5R,6R)-2-((1H-1,2,4-Triazol-5-yl)methyl)-4-((S)-2-(tert-butylsulfonyl)-1-cyclopropylethyl)-6-(3-chlorophenyl)-5-(4-chlorophenyl)morpholin-3-one or (2S,5R,6R)-2-((1H-1,2,4-triazol-5-yl)methyl)-4-((S)-2-(tert-butylsulfonyl)-1-cyclopropylethyl)-6-(3-chlorophenyl)-5-(4-chlorophenyl)morpholin-3-one]",19 nM
10,"CC[C@@H](CS(=O)(=O)C(C)(C)C)N1C(=O)[C@H](CC(=O)NC#N)O[C@H](c2cccc(Cl)c2)[C@H]1c1ccc(Cl)cc1 [Example 344, 2-((2S,5R,6R)-4-((S)-1-(tert-Butylsulfonyl)butan-2-yl)-6-(3-chlorophenyl)-5-(4-chlorophenyl)-3-oxomorpholin-2-yl)-N-cyanoacetamide]",< 1 nM
11,"CC(C)(C)S(=O)(=O)C[C@H](CC(F)(F)F)N1C(=O)[C@@](C)(CC(=O)O)O[C@H](c2cccc(Cl)c2)[C@H]1c1ccc(Cl)cc1 (single isomer, unassigned) [Example 340, 2-((2R,5R,6R)-4-((S)-1-(tert-Butylsulfonyl)-4,4,4-trifluorobutan-2-yl)-6-(3-chlorophenyl)-5-(4-chlorophenyl)-2-methyl-3-oxomorpholin-2-yl)acetic acid or 2-((2S,5R,6R)-4-((S)-1-(tert-butylsulfonyl)-4,4,4-trifluorobutan-2-yl)-6-(3-chlorophenyl)-5-(4-chlorophenyl)-2-methyl-3-oxomorpholin-2-yl)acetic acid]",28 nM
12,"CC[C@@H](CN(c1ccccc1Cl)S(=O)(=O)C1CC1)N1C(=O)[C@@H](CC(=O)O)O[C@H](c2cccc(Cl)c2)[C@H]1c1ccc(Cl)cc1 (single isomer, unassigned) [Example 264, 2-((2R,5R,6R)-6-(3-chlorophenyl)-5-(4-chlorophenyl)-4-((S)-1-(N-(2-chlorophenyl)cyclopropanesulfonamido)butan-2-yl)-3-oxomorpholin-2-yl)acetic acid or 2-((2S,5R,6R)-6-(3-chlorophenyl)-5-(4-chlorophenyl)-4-((S)-1-(N-(2-chlorophenyl)cyclopropanesulfonamido)butan-2-yl)-3-oxomorpholin-2-yl)acetic acid]",19 nM
13,"NC(=O)C[C@H]1O[C@H](c2cccc(Cl)c2)[C@@H](c2ccc(Cl)cc2)N([C@H](CN(c2c(F)cccc2F)S(=O)(=O)C2CC2)C2CC2)C1=O (single isomer, unassigned) [Example 358, 2-((2R,5R,6R)-6-(3-Chlorophenyl)-5-(4-chlorophenyl)-4-((S)-1-cyclopropyl-2-(N-(2,6-difluorophenyl)cyclopropanesulfonamido)ethyl)-3-oxomorpholin-2-yl)acetamide or 2-((2S,5R,6R)-6-(3-chlorophenyl)-5-(4-chlorophenyl)-4-((S)-1-cyclopropyl-2-(N-(2,6-difluorophenyl)cyclopropanesulfonamido)ethyl)-3-oxomorpholin-2-yl)acetamide]",< 1 nM
14,"CC(C)(C)S(=O)(=O)C[C@H](C1CC1)N1C(=O)[C@@H](CC(=O)O)O[C@H](c2ccc(F)c(Cl)c2)[C@H]1c1ccc(Cl)cc1 (single isomer, unassigned) [Example 320, 2-((2R,5R,6R)-4-((S)-2-(tert-Butylsulfonyl)-1-cyclopropylethyl)-6-(3-chloro-4-fluorophenyl)-5-(4-chlorophenyl)-3-oxomorpholin-2-yl)acetic acid or 2-((2S,5R,6R)-4-((S)-2-(tert-butylsulfonyl)-1-cyclopropylethyl)-6-(3-chloro-4-fluorophenyl)-5-(4-chlorophenyl)-3-oxomorpholin-2-yl)acetic acid]",3 nM
15,"CC(C)(C)S(=O)(=O)C[C@H](C1CC1)N1C(=O)[C@@H](CC(=O)Nc2ccccc2F)O[C@H](c2cccc(Cl)c2)[C@H]1c1ccc(Cl)cc1 (single isomer, unassigned) [Example 353, 2-((2R,5R,6R)-4-((S)-2-(tert-Butylsulfonyl)-1-cyclopropylethyl)-6-(3-chlorophenyl)-5-(4-chlorophenyl)-3-oxomorpholin-2-yl)-N-(2-fluorophenyl)acetamide or 2-((2S,5R,6R)-4-((S)-2-(tert-butylsulfonyl)-1-cyclopropylethyl)-6-(3-chlorophenyl)-5-(4-chlorophenyl)-3-oxomorpholin-2-yl)-N-(2-fluorophenyl)acetamide]",9 nM
16,"CC(C)(C#N)S(=O)(=O)C[C@H](C1CC1)N1C(=O)[C@@H](CC(=O)O)O[C@H](c2cccc(Cl)c2)[C@H]1c1ccc(Cl)cc1 (single isomer, unassigned) [Example 290, 2-((2R,5R,6R)-6-(3-Chlorophenyl)-5-(4-chlorophenyl)-4-((S)-2-((2-cyanopropan-2-yl)sulfonyl)-1-cyclopropylethyl)-3-oxomorpholin-2-yl)acetic acid or 2-((2S,5R,6R)-6-(3-chlorophenyl)-5-(4-chlorophenyl)-4-((S)-2-((2-cyanopropan-2-yl)sulfonyl)-1-cyclopropylethyl)-3-oxomorpholin-2-yl)acetic acid]",< 1 nM
17,"CC[C@@H](CS(=O)(=O)C(C)C)N1C(=O)[C@@H](CC(=O)O)O[C@H](c2cc(F)cc(Cl)c2)[C@H]1c1ccc(Cl)cc1 (single isomer, unassigned) [Example 124, 2-((2R,5R,6R)-6-(3-Chloro-5-fluorophenyl)-5-(4-chlorophenyl)-4-((S)-1-(isopropylsulfonyl)butan-2-yl)-3-oxomorpholin-2-yl)acetic acid or 2-((2S,5R,6R)-6-(3-Chloro-5-fluorophenyl)-5-(4-chlorophenyl)-4-((S)-1-(isopropylsulfonyl)butan-2-yl)-3-oxomorpholin-2-yl)acetic acid]",2 nM
